Values after ≈ are worked out from the molar mass of the structure shown. Counter-ions that a name gives are not always drawn.
Columns and labels:
[1] = system: bone marrow stem cells of the granulocytic/monocytic series; test: Bone marrow toxicity in vitro (CFU-GM assay); conditions: for toxicity on bone marrow stem cells of the granulocytic/monocytic series: in words, up to the highest tested concentration of 100 μg/ml
[2] = system: Murine Cytomegaly Virus (MCMV); test: Murine Cytomegaly Virus (MCMV) model, survival rate; type: in vivo, female Balb/c mice; conditions: 8×10^5 PFU i.p.; oral bioavailability model; drug dose not given
Method: Female Balb/c mice were treated i.p. with a dose of 8×10^5 PFU (plaque forming units).

bone marrow = conditions: AIDS patients; cited from earlier work
[3] = Stability (in the investigations and during production); type: physicochemical; conditions: in the investigations and during production / under the same conditions
[4] = system: HSV 1 and 2, influenza, HBV, VZV, EBV as well as retroviral infections; conditions: cited from earlier work
[5] = due to similarity to pyrophosphate by accumulation in bones; cited from earlier work

SMILES | IC50 ([1]; Mus musculus, CFU-GM) [µg/mL] | toxicity on bone marrow stem cells of the granulocytic/monocytic series [1] | other results
CCCCCCCCCCCCSCC(COP(=O)(O)CC(=O)O)OCCCCCCCCCC (racemic) [DMDOP-PAA, R,S-(3-dodecylmercapto-2-decyloxy)-propoxy-hydroxy-phosphinyl acetic acid di-sodium salt] | > 100 | no toxicity | –
CCCCCCCCCCCCSCC(COP(=O)(O)C(=O)O)OCCCCCCCCCC (racemic) [DMDOP-PFA, R,S-(3-Dodecylmercapto-2-decyloxy)-propoxy-hydroxy-phosphinyl-formic acid di-sodium salt] | > 100 | no toxicity | survival rate of the animals (rank order) [2]: untreated<Foscarnet treated<DMDOP-PFA treated<DMDOP-PFA-OMe
CCCCCCCCCCCCSCC(COP(=O)(O)C(=O)OC)OCCCCCCCCCC (racemic) [DMDOP-PFA-OMe, R,S-(3-dodecylmercapto-2-decyloxy)propoxy-hydroxy-phosphinylformic acid methyl ester] | – | – | survival rate of the animals (rank order) [2]: untreated<Foscarnet treated<DMDOP-PFA treated<DMDOP-PFA-OMe
Cc1cn([C@H]2C[C@H](N=[N+]=[N-])[C@@H](CO)O2)c(=O)[nH]c1=O [3'-azido-3'-deoxythymidine, 3'-Azido-3'-deoxythymidine] | – | – | treated patients needing blood transfusions due to toxic side effects on the bone marrow (bone marrow): about 50%
N.N.[Cl][Pt][Cl] [Cis-DDP (Cisplatin), Cisplatin] | – | – | IC50 ([1]; CFU-GM assay, mean value±SEM, number of experiments in parentheses, highest tested concentration 100 μg/ml): 0.45 ± 0.11 µg/mL
COc1cccc2c1C(=O)c1c(O)c3c(c(O)c1C2=O)C[C@@](O)(C(=O)CO)C[C@@H]3O[C@H]1C[C@H](N)[C@H](O)[C@H](C)O1 [Doxorubicin] | 0.046 ± 0.007 (≈ 0.0846 µM) | – | –
CCCCCCCCCCCCCCCCCCOCC(O)COP(=O)(O)C(=O)O (stereo not drawn) [OOHP-PFA, (3-octadecyloxy-2-hydroxy)-propoxy-hydroxy-phosphinylformic acid] | 94.5 (≈ 209 µM) | more toxic than DMDOP-PFA and DMDOP-PAA | –
CCCCCCCCCCCCCCCCCCOCC(O)COP(=O)(O)C(=O)OCC (stereo not drawn) [OOHP-PFAE, (3-octadecyloxy-2-hydroxy)-propoxy-hydroxy-phosphinylformic ethyl ester] | 59.4 (≈ 123 µM) | more toxic than DMDOP-PFA and DMDOP-PAA | –
CCCCCCCCCCCCCCCCCCOC[C@@H](O)COP(=O)(O)C(=O)O [batylphosphonoformate, 1-O-octadecyl-sn-glycero-3-phosphono-formate] | – | – | stability [3]: unstable
O=C(O)CP(=O)(O)O [phosphonoacetic acid] | 62.9 (≈ 449 µM) | more toxic than DMDOP-PFA and DMDOP-PAA | antiviral activity [4]: good antiviral activity; toxicity [5]: toxic
O=C(O)P(=O)(O)O [phosphonoformic acid] | > 100 | – | toxicity [5]: toxic; survival rate of the animals (rank order) [2]: untreated<Foscarnet treated<DMDOP-PFA treated<DMDOP-PFA-OMe

From patent publication US6136797A, “Phospholipid derivatives of phosphono-carboxylic acids, the production of said derivatives and the use of said derivatives as antiviral medicaments” (priority 1995, dated 2000)
